Laboratory results: US6962930B1, “Compounds, compositions and method suitable for amelioration of withdrawal syndromes and withdrawal-induced brain damage” (Lohocla Research Corporation, priority 1997, dated 2005)

How the values were obtained:
naive Swiss-Webster mice = assay: Elevated plus-maze; type: in vivo; conditions: 100 or 500 mg/kg
Procedure: The anxiolytic effect of the DCUK-OMe was studied in naive Swiss-Webster mice using an elevated plus-maze apparatus. The plus-shaped maze consists of two arms which are open to the environment (about 30×5 cm) and two arms with side and end walls (about 30×5×15 cm). The arms are connected to a central area (about 5×5 cm) and the plus-maze is elevated from the floor to a height of about 50 cm.
All tests were conducted in a sound-attenuated room under low intensity light (25 Watt). […] A trained observer blind to the treatment conditions scored the number of entries into open arms, the number of entries into closed arms, the number of entries into the central area, the number of rears, and the number of grooming episodes over a 5-minute period. […] The percentage open arm entries was calculated for each animal and used as a measure of the anxiolytic/anxiogenic effects of drug treatment. In addition, the total number of entries made into either open or closed arms was recorded as a measure of drug effects on locomotor activity.
Mice were injected with either vehicle (5% Tween-80, 20% Intralipid) or 100 mg/kg or 500 mg/kg DCUK-OMe suspended in the vehicle about 90 minutes before testing in the plus-maze apparatus. Data were expressed as the percent increase in open arm entries of the drug treated animals compared to vehicle-injected mice. […] Data were analyzed using a one-way ANOVA on ranks. […]

[1] = test system: primary cultures of rat cerebellar granule cells; assay: Glutamate-induced excitotoxic cell death, fluorescein assay; type: cell-based
Procedure: Primary cultures of cerebellar granule cells were prepared from 6- to 8-day old Sprague-Dawley rats. A description of this procedure can be found in Iorio, K. R., et al., “CHRONIC EXPOSURE OF CEREBELLAR GRANULE CELLS TO ETHANOL RESULTS IN INCREASED N-METHYL-D-ASPARTATE RECEPTOR FUNCTION,” Mol. Pharmacol., 41 1142–1148 (1992), the relevant disclosures of which are incorporated herein by reference. The cultures were maintained in plates containing 24 wells of 1 ml each. Culture density was about 1.5×10^6 cells/ml. Cell viability was assayed after 7–8 days in culture by the production of fluorescein, formed from fluorescein diacetate by esterases present in living cells. […]
Cells were washed with Mg^2+-free Locke's buffer, and then exposed to glutamate alone or glutamate in the presence of 10, 30, or 100 μM DCUK-OMe at 25° C. for 30 minutes. […] For each study, the fluorescence value of a control culture (i.e., not exposed to glutamate) was set to 35,000 fluorescence units, and fluorescence values in all other cultures determined using the same spectrofluorometric settings were normalized to that value. […] The data are then expressed as the percent cell death relative to the control cultures.

Swiss-Webster mice = assay: Ethanol-induced loss of righting reflex; type: in vivo; conditions: i.p. 30 minutes before ethanol; DCUK-OMe 100 mg/kg, DZP 1 mg/kg
Procedure: Swiss-Webster mice were pretreated (i.p.) with 100 mg/kg DCUK-OMe or 1 mg/kg diazepam (DZP) (in 5% Tween-80, 20% Intralipid) 30 minutes before receiving an i.p. administration of ethanol (either 2.3 or 3.2 g/kg, 20% v/v in saline.). The duration of the ethanol-induced loss of righting reflex (defined as the inability of the mouse to right itself when placed on its back in a trough) was measured. […] Since withdrawal signs are many times evident in individuals whose blood ethanol levels are dropping but are far from zero, the DCUK compounds would have an advantage over DZP in that the CNS depressant effects of ethanol would not be accentuated by DCUK compounds if the DCUK compounds are used in an alcohol-intoxicated individual.

[2] = molecular target: benzodiazepine binding site on the GABAA receptor; assay: [3H]flunitrazepam binding, rat cortical membranes; conditions: 5–200 μM DCUKA tested
Procedure: SITES IN CEREBRUM OF F-344 RATS: EFFECTS OF EXERCISE,” Neurobiol. […] Non-specific binding was defined by 10 μM diazepam.

[3] = molecular target: T1, polyamine binding site on the NMDA receptor (Rattus norvegicus, UniProt P35439+Q00960); assay: [3H]ifenprodil binding, rat cortical membranes; conditions: 5–200 μM DCUKA tested
T1 construct: from tissue; host or cells: rat cortical membranes
T1 sequence (Q00960 27-1482, other chains not shown): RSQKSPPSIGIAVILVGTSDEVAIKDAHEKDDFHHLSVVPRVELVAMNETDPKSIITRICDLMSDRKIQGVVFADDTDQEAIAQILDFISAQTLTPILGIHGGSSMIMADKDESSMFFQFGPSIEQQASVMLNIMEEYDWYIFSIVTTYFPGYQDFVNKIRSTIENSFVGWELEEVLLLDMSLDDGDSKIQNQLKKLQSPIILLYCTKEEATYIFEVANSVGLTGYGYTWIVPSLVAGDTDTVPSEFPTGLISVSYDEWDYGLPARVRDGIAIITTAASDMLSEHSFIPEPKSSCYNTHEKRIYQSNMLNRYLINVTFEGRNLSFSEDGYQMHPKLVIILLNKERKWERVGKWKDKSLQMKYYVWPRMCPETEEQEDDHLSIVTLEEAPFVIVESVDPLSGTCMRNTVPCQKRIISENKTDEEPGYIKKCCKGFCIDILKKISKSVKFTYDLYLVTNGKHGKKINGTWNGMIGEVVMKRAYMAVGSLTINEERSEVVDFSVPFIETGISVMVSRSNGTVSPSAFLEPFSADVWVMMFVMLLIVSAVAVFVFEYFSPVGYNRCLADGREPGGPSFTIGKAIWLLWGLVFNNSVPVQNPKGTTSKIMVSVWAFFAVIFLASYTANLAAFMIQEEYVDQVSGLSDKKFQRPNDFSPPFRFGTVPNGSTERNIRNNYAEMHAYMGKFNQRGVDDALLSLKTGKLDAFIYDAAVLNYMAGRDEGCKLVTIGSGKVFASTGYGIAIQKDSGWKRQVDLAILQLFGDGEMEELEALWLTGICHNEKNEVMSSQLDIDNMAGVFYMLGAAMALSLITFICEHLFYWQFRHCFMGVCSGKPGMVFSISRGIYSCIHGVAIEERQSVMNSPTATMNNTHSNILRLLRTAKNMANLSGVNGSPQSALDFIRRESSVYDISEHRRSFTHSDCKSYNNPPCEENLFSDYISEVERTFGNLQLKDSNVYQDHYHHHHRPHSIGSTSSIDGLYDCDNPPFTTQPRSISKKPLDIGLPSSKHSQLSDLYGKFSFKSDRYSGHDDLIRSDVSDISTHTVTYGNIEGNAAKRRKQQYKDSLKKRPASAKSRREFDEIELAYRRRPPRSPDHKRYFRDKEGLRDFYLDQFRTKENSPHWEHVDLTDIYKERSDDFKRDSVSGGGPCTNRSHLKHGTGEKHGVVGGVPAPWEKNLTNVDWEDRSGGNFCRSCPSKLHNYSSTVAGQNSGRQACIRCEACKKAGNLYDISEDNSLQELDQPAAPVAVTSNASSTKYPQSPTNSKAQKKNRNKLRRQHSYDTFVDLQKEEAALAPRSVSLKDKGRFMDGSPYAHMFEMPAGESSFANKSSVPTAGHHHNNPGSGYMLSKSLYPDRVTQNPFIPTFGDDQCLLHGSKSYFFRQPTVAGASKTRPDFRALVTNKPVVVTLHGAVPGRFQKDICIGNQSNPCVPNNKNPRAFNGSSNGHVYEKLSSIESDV

[4] = molecular target: T2, rabbit cardiac L-type VSCC (Oryctolagus cuniculus, UniProt P15381); assay: Currents through VSCCs in oocytes, two electrode voltage clamp; type: cell-based; conditions: 50 μM, Li+ currents, holding −80 mV, test −20 mV
T2 construct: expressed in transfected cells; host or cells: Xenopus laevis oocytes, cRNA injection
T2 sequence (P15381 whole entry): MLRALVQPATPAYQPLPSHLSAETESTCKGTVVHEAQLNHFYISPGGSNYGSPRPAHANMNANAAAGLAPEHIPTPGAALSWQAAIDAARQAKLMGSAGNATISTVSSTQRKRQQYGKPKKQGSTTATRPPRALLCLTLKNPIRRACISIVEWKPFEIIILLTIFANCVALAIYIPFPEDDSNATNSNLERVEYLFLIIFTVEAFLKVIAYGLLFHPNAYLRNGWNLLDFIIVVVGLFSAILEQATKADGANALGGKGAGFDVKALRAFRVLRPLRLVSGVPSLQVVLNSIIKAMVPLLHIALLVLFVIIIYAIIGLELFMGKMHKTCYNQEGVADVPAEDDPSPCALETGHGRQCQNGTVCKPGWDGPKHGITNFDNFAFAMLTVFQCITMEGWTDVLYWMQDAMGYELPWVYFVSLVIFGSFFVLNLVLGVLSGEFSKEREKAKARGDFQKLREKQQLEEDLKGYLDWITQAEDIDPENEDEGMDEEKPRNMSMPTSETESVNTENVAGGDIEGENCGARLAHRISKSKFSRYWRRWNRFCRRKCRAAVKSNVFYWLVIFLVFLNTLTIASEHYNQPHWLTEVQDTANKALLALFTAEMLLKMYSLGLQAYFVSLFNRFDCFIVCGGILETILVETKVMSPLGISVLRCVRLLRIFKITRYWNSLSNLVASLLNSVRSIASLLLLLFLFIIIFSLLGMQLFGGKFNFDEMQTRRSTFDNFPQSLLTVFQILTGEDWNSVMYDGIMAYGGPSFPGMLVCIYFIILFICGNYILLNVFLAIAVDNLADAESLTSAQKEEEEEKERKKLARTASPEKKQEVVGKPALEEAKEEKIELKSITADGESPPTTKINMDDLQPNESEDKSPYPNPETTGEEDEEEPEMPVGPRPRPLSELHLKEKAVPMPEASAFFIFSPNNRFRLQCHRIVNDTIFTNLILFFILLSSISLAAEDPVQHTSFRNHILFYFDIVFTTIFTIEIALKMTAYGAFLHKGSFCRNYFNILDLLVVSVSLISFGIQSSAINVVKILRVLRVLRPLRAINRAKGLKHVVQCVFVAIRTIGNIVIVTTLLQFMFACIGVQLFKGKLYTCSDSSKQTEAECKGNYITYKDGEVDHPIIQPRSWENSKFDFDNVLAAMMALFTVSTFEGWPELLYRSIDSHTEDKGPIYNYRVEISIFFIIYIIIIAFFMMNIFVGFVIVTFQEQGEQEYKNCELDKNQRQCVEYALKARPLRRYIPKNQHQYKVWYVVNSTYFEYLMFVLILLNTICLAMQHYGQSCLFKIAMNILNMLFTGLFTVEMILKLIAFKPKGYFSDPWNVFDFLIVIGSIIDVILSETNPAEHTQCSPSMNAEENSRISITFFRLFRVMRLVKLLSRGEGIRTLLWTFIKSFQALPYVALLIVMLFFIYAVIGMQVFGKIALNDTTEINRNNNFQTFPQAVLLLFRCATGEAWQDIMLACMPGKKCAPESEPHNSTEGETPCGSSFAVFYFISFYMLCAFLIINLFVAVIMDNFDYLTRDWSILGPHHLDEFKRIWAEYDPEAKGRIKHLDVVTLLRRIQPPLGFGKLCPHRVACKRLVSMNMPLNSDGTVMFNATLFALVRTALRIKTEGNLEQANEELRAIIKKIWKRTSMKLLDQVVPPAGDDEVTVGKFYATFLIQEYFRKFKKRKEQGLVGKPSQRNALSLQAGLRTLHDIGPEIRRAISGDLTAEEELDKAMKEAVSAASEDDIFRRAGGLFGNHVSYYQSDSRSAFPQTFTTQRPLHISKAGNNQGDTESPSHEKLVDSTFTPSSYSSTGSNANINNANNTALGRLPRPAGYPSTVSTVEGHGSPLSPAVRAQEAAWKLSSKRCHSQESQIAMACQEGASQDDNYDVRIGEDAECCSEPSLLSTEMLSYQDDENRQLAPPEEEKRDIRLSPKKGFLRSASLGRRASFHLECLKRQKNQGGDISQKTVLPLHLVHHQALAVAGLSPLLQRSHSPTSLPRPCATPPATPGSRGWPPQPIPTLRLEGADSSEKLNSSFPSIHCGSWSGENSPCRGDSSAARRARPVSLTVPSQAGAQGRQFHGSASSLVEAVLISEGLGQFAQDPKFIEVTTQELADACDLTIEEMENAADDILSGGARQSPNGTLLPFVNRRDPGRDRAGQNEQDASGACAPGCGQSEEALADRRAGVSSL
Procedure: In other studies, Stage V and VI oocytes were prepared from Xenopus laevis and maintained using the procedures described in Example 3. Oocytes were injected with cRNA encoding the rabbit cardiac L-type VSCC αic, together with the ancillary subunits α2/β and β2b in a 1:1:1 molar ratio. Macroscopic currents were recorded 4–6 days following injection using the two electrode voltage clamp technique. During recording, oocytes were maintained at room temperature in a perfusion chamber and perfused (1 ml/min) continuously with a buffer containing (in mM) 100 LiCl, 10 HEPES, 10 HEDTA, 14 TEA-Cl, 0.015 CaCl2, (effective free calcium concentration ˜3 nM), pH 7.4 with TEA-OH. The monovalent ion Li^+was used as the charge carrier rather than Ba^2+in these studies because high concentrations of divalent ions promoted precipitation of DCUKA.
DCUKA was made up as a stock solution in DMSO and used in the studies at a concentration of 50 μM, resulting in a final DMSO percentage of 0.25%. This concentration of DMSO enhanced Li^+currents to a small extent, however, this was controlled for by exchanging between solutions that were identical except for presence/absence of the drug itself. […] Li^+currents were recorded using an OC-725B amplifier (Warner Instruments), filtered at 1 kHz (4-pole Bessel filter, Warner Instruments) and sampled at 2 kHz. Voltage pulses of 250 ms duration were given every 15 sec. […]

Compound | open arm entries (anxiolytic effect) (naive Swiss-Webster mice; about 90 minutes before testing) | total arm entries (locomotor activity) (naive Swiss-Webster mice; compared to vehicle) | protection from glutamate-induced cell death ([1]; 100 μM) | effect on glutamate-induced cell death ([1]; 10, 30 or 100 μM, 30 minutes with glutamate) | duration of ethanol-induced loss of righting reflex (LORR) (Swiss-Webster mice) | IC50 [2] | IC50 [3] | decrement in the current through VSCCs [4]
COC(=O)c1cc(NC(=O)N(c2ccccc2)c2ccccc2)c2c(Cl)cc(Cl)cc2n1 [DCUK-OMe, (N,N-diphenyl)-4-ureido-5,7-dichloro-2-carboxy-quinoline methyl ester] | has anxyolitic activity | did not show any increase in total arm entries | complete protection | can block glutamate-induced cell death in a concentration-dependent manner | no significant enhancement |  |  | 
O=C(O)c1cc(NC(=O)N(c2ccccc2)c2ccccc2)c2c(Cl)cc(Cl)cc2n1 [DCUKA, (N,N-diphenyl)-4-ureido-5,7-dichloro-2-carboxy-quinoline] |  |  |  |  |  | > 200 µM | > 200 µM | less than 20%
